{"source": "patent US12250948B2", "about": "“Methods for the control of arthropods using near-ideal gas phase hydrogen peroxide” (Synexis LLC, priority 2013, dated 2025)", "key": {"[1]": {"test_system": "Yellow Jackets and Nest", "details": "PHPG 0.3 ppm"}, "[2]": {"test_system": "House Fly Pupae", "details": "PHPG 0.5 ppm", "experimental": "(§1) The effects of Purified Hydrogen Peroxide Gas (PHPG) on selected arthropod species is performed to determine the efficacy on controlling an arthropod using the indirect dispersion of PHPG in a space. In these experiments, the knockdown and mortality rates in mosquitoes, bed bugs, termites, ants, moths, house flies, and spiders is assessed.\n(§2) Black wood ants, house flies (adult and pupae), large saturniid moths, termites (soldier and living), and cellar spiders are obtained from Carolina Supplies and shipped overnight. All organisms are fed prior to shipping from Carolina Supplies. Bed bugs and mosquitoes are sourced locally due to government shipping restrictions. The test samples are stored in a cabinet at ambient temperature and humidity until use in the study. The samples are labeled and color-coded for easy identification. In certain experiments, specimens of wild caught arthropods are used in the controlled experiments, including for example Brazilian cockroaches.\n(§3) All testing is conducted in a sealed, Static Dissipative PVC chamber, Terra Universal (Fullerton, CA) Model 3305-10F: 59 inches W×24 inches D×25 inches H. With additional airlock Terra Universal Model 1680-81B 11.5 inches W×10 inches D×10.5 inches 1-1. Arthropods are placed inside transfer containers (pint size paper containers). The top and bottom diameters of these containers are 3.75 and 2.87 inches respectively with a height of 3.5 inches. All arthropods are released once the airlock is sealed. Arthropods are allowed to recover following PHPG exposure and observed in 8 oz glass Pyrex@(Tewksbury, MA) containers with sealed glass lids.\n(§4) Three replicates of ten of each arthropod are subjected to PHPG. An additional three replicates are subjected to a non PHPG producing device and serve as untreated controls. The arthropods are observed for knockdown at 0.5, 1, 2, 3, 4, 5, and 15 minutes. Mortality counts are taken after 24 hours of PHPG exposure. If at 24 hours mortality is less 90%, additional readings are taken following 48 hours of PHPG exposure. The test samples are exposed to the test environment containing PHPG until a 90% knockdown is achieved. The test samples are provided PHPG emitted from a PHPG producing device in the center of the test chamber. Time frames are recorded for each replicate. Just prior to treatment the arthropods are transferred into the transfer containers. Forty eight hours after treatment, they are removed from the treatment chamber and transferred to recovery containers and covered with screened lids for observation.\n(§5) Knockdown occurs when an arthropod cannot right itself when placed on its back but is still able to move at least one body part. The arthropods are then transferred from the treatment chamber to recovery containers. Another knockdown/mortality observation is made 15 minutes later.\n(§6) If all ten arthropods are recorded as knocked down or deceased during any observation before 15 minutes have elapsed, subsequent observations are not made. Mortality counts are made at 24 hours, and 48 hours or sooner (if applicable). All dead arthropods are confirmed by probing or agitation to make sure that they are unable to move (any that show movement visible to the naked eye are recorded as moribund). Arthropods that can crawl or right themselves when placed on their backs are recorded as being alive.\n(§7) After the knockdown counts are complete, the arthropods are maintained in the laboratory at ambient temperature and humidity conditions with a normal 8:16 light:dark cycle for 24 hours. Additional mortality readings are taken at 48 hours if less than 90% mortality is recorded at 24 hours. A 48 hour reading depends upon control mortality remaining less than 10%. Temperature and humidity are recorded in the treatment area, and in the laboratory where the arthropods are subsequently held for the duration of the test."}, "[3]": {"test_system": "Cockroaches", "experimental": "as §1, §2, §3, §4, §5, §6, §7"}, "[4]": {"test_system": "Bedbugs", "details": "PHPG 0.6 ppm", "experimental": "as §1, §2, §3, §4, §5, §6, §7"}, "[5]": {"test_system": "Tarantula", "experimental": "as §1, §2, §3, §4, §5, §6, §7"}, "[6]": {"test_system": "Termites", "experimental": "as §1, §2, §3, §4, §5, §6, §7"}, "[7]": {"test_system": "Fruit Flies", "details": "PHPG 0.3 ppm, exposure 72 hours", "experimental": "as §1, §2, §3, §4, §5, §6, §7"}, "[8]": {"test_system": "Deer Ticks", "details": "PHPG 0.6 ppm", "experimental": "as §1, §2, §3, §4, §5, §6, §7"}, "[9]": {"test_system": "Carpenter Ants", "details": "PHPG 1.0 ppm", "experimental": "as §1, §2, §3, §4, §5, §6, §7"}, "[10]": {"test_system": "Wolf Spiders", "details": "PHPG 1.0 ppm", "experimental": "as §1, §2, §3, §4, §5, §6, §7"}, "[11]": {"test_system": "Cellar Spiders", "details": "PHPG 1.0 ppm", "experimental": "as §1, §2, §3, §4, §5, §6, §7"}, "[12]": {"test_system": "Mosquitoes", "details": "PHPG 0.2 ppm"}, "[13]": {"test_system": "Stink Bugs", "details": "PHPG 0.3 ppm"}, "[14]": {"test_system": "Brown Dog Tick", "experiment": "Laboratory chamber test of PHPG, knockdown and mortality", "format": "in vivo", "details": "PHPG 0.6 ppm", "experimental": "as §1, §2, §3\nThree replicates of ten of each arthropod are subjected to PHPG. […] If at 24 hours mortality is less 90%, additional readings are taken following 48 hours of PHPG exposure. […] Time frames are recorded for each replicate. […]\nas §6, with “Mortality counts are made at 24 hours, and 48 hours or sooner (if applicable).” left out\nas §7"}, "[15]": {"test_system": "Crickets", "details": "PHPG 0.4 ppm"}, "[16]": {"test_system": "Lice and nits"}, "[17]": {"test_system": "House Flies", "details": "PHPG 0.2 ppm"}, "[18]": {"test_system": "arthropods including crickets, ants, spiders, and house flies", "experiment": "Real world test of PHPG in 1400 sq ft Pool House", "details": "after 27 hours", "text": "All PHPG concentration readings take place with Draeger products. A Pac III, Polytron 7000 or Draeger Tubes are utilized in all tests, generally according to manufacturer's instructions. […] Most commonly, Draeger Tubes are used after clipping on both ends and placement in a ACCURO™ Pump. Per manufacturer instructions, the tubes are pumped 100 times and the level of PHPG determined by observing the color change in the crystals.\nTwo PHPG generating devices were placed in the space for an initial cleansing and to establish levels."}}, "note": "Like-named read-outs stand apart in the source and are kept apart here.", "data": [{"smiles": "OO", "note": "[PHPG, Purified Hydrogen Peroxide Gas]", "values": [{"measurement": "Observations: unhatched yellow jackets in the nest", "setting": "[1]; 1 day, nest was hatching", "result": "jackets in the nest died."}, {"measurement": "Percent Killed", "setting": "[1]; Yellow Jackets and Nest, exposure 1 day", "result": 100, "unit": "%"}, {"measurement": "Attempt to Flee?", "setting": "[1]; Yellow Jackets", "result": "Yes"}, {"measurement": "Observations: hatching", "setting": "[2]; 100 pupae expected to hatch within 3 days, within one week", "result": "within 3 days. Did not hatch"}, {"measurement": "Percent Killed", "setting": "[2]; House Fly Pupae, exposure 7 days", "result": 100, "unit": "%"}, {"measurement": "Attempt to Flee?", "setting": "[3]; Cockroaches, PHPG 0.6 ppm", "result": "No"}, {"measurement": "Percent Killed", "setting": "[3]; Cockroaches, PHPG 0.6 ppm, exposure 24 Hours", "result": 0, "unit": "%"}, {"measurement": "Observations", "setting": "[3]; Cockroaches, low level of PHPG (0.6 ppm), did not react to the gas", "result": "Appeared resistant at low"}, {"measurement": "Resistance to PHPG", "setting": "[3]; adult cockroaches, PHPG levels up to 0.6 ppm for 24 hours", "result": "resistant"}, {"measurement": "Observations: nymphs", "setting": "[4]; Bedbug nymphs hatched from immature eggs", "result": "Nymphs died in seconds."}, {"measurement": "Observations: all bedbugs reacted within", "setting": "[4]; Bedbugs", "result": "fifteen seconds."}, {"measurement": "Observations: final outcome", "setting": "[4]; Bedbugs", "result": "All died over time."}, {"measurement": "Percent Killed", "setting": "[4]; Bedbugs, exposure 3 hours", "result": 50, "unit": "%"}, {"measurement": "Percent Killed", "setting": "[4]; Bedbugs, exposure 60 hours", "result": 100, "unit": "%"}, {"measurement": "Attempt to Flee?", "setting": "[4]; Bedbugs, cell continues 'Went Dormant'", "result": "No,"}, {"measurement": "Attempt to Flee?", "setting": "[5]; Tarantula, PHPG 0.6 ppm", "result": "No"}, {"measurement": "Percent Killed", "setting": "[5]; Tarantula, PHPG 0.6 ppm, exposure 24 hours", "result": 0, "unit": "%"}, {"measurement": "Observations", "setting": "[5]; Tarantula, PHPG 0.6 ppm, did not react to the gas", "result": "Appeared resistant. Did not"}, {"measurement": "Resistance to PHPG", "setting": "[5]; tarantula spiders, PHPG levels up to 0.6 ppm for 24 hours", "result": "resistant"}, {"measurement": "Attempt to Flee?", "setting": "[6]; PHPG 0.1 ppm, cell continues 'Then went dormant'", "result": "Yes,"}, {"measurement": "Percent Killed", "setting": "[6]; PHPG 0.1 ppm, exposure 24 hours", "result": 100, "unit": "%"}, {"measurement": "Observations", "setting": "[6]; very low exposure (PHPG 0.1 ppm), sought shelter", "result": "went dormant. Larger"}, {"measurement": "Percent Killed", "setting": "[7]", "result": 100, "unit": "%"}, {"measurement": "Attempt to Flee?", "setting": "[8]", "result": "Yes"}, {"measurement": "Percent Killed", "setting": "[8]; exposure 3 hours", "result": 70, "unit": "%"}, {"measurement": "Percent Killed", "setting": "[8]; exposure 60 hours", "result": 100, "unit": "%"}, {"measurement": "Observations", "setting": "[8]; until they succumbed", "result": "All ticks searched for an exit"}, {"measurement": "Attempt to Flee?", "setting": "[9]", "result": "Yes"}, {"measurement": "Observations: order of death", "setting": "[9]", "result": "exit. Smallest ants died first."}, {"measurement": "Percent Killed", "setting": "[9]; exposure 24 Hours", "result": 15, "unit": "%"}, {"measurement": "Observations: ants collected in areas where fresh air was seeping into the chamber and remained inactive", "setting": "[9]; when unable to flee", "result": "When unable 50% collected"}, {"measurement": "Attempt to Flee?", "setting": "[10]", "result": "Yes"}, {"measurement": "Observations", "setting": "[10]", "result": "Very susceptible; and"}, {"measurement": "Percent Killed", "setting": "[10]; exposure 1 hour", "result": 100, "unit": "%"}, {"measurement": "Attempt to Flee?", "setting": "[11]", "result": "Yes"}, {"measurement": "Observations: smallest spiders died within", "setting": "[11]", "result": "one hour. Larger spiders"}, {"measurement": "Percent Killed", "setting": "[11]; exposure 24 Hours", "result": 33, "unit": "%"}, {"measurement": "Attempt to Flee?", "setting": "[12]", "result": "Yes"}, {"measurement": "Percent Killed", "setting": "[12]; exposure 2 hours", "result": 100, "unit": "%"}, {"measurement": "Attempt to Flee?", "setting": "[13]", "result": "Yes"}, {"measurement": "Percent Killed", "setting": "[13]; exposure 24 hours", "result": 100, "unit": "%"}, {"measurement": "Attempt to Flee?", "setting": "[14]", "result": "Yes"}, {"measurement": "Percent Killed", "setting": "[14]; exposure 3 hours", "result": 70, "unit": "%"}, {"measurement": "Percent Killed", "setting": "[14]; exposure 60 hours", "result": 100, "unit": "%"}, {"measurement": "Observations", "setting": "[14]; until they succumbed", "result": "All ticks searched for an exit"}, {"measurement": "Percent Killed", "setting": "[15]; exposure 21 hours, garden house", "result": 100, "unit": "%"}, {"measurement": "Attempt to Flee?", "setting": "[15]; tried to exit through HVAC vents", "result": "Yes"}, {"measurement": "Percent Killed", "setting": "[16]; Lice and nits, PHPG 0.2 ppm, exposure 2 days", "result": 100, "unit": "%"}, {"measurement": "Observations: bedding and other exposed items", "setting": "[16]; Lice and nits, PHPG 0.2 ppm, within two days", "result": "items fully treated within two"}, {"measurement": "Elimination of all signs of lice", "setting": "[16]; child subject, from initiation of PHPG treatment", "result": "lice free within two days"}, {"measurement": "Attempt to Flee?", "setting": "[17]", "result": "Yes"}, {"measurement": "Observations: final outcome", "setting": "[17]", "result": "All died within day"}, {"measurement": "Observations: first deaths within", "setting": "[17]", "result": "one hour"}, {"measurement": "Percent Killed", "setting": "[17]; exposure 24 hours", "result": 100, "unit": "%"}, {"measurement": "Live insects observed", "setting": "[18]; PHPG 0.4 ppm", "result": "No live insects were observed"}, {"measurement": "Number of arthropods confirmed dead", "setting": "[18]; two PHPG generating devices, PHPG 0.4 ppm at 27 hours", "result": 109}]}]}
